Measured values reported in patent publication US20240293305A1, “COMPOSITION WITH ANTIMICROBIAL OR ANTIFUNGAL ACTIVITY COMPRISING FERMENTED SCUTELLARIA BAICALENSIS EXTRACT, FERMENTED SALVIA MILTIORRHIZA EXTRACT AND FERMENTED DRYPTERIS CCRASSIRHIZOMA EXTRACT” (Sooy-K Co., LTD., priority 2023, published 2024).
Several values for one entry are separate records, joined by “and”; a condition that tells them apart may be missing. Equal entries are not always repeated.

What was measured:
Assay type in all cases: cell-based
[1] = system: Aspergillus niger (A. niger, KCTC 6196); experiment: Disc diffusion method, clear zone, A. niger; conditions: KCTC6196, Table 19 Antibiotic: ketoconazole (200 μg/mL), read-out: Clear zone (ø, mm) A. niger
Experimental: (§1) As the strains used for antibacterial activity experiments, Gram-positive bacteria Staphylococcus aureus (S. aureus, KCTC 1916), Gram-negative Escherichia coli (E. coli, KCTC 2571), Pseudomonas aeruginosa (P. aeruginosa, KCTC 2513), Candida albicans (C. albicans, KCTC 7965), and Aspergillus niger (A. niger, KCTC 6196), which were purchased from the Korean collection for Type Cultures (KCTC), were stored and used (Table 5). The inhibitory zones of the extracts were measured by a test method of antibacterial activity to determine the presence or absence of antibacterial activity and to compare the degree of effectiveness of the extracts against the proliferation of bacteria. The antibacterial activity was measured by the disc diffusion method using a paper disc (size: 8 mm, Advantec, Toyo Roshi Kaisha, Ltd., Tokyo, Japan). The strains were each inoculated in an amount of one platinum loop, diluted in 4 mL of sterile water, mixed with a sterilized medium, and the mixture was poured into a prepared plate to be hardened. A 3% extract each was filtered (pore size: 0.4 μm, Advantec MFS, Inc., Tokyo, Japan), and 40 μL was taken and allowed to be absorbed onto a paper disc. After culturing for 24 hours at an appropriate temperature for each strain, the size of the transparent ring formed around the paper disc was measured. [table]

[2] = system: Candida albicans (C. albicans, KCTC 7965); experiment: Disc diffusion method, clear zone, C. albicans; conditions: Table 19 Antibiotic: ketoconazole (200 μg/mL)
Experimental: as §1

[3] = system: Pseudomonas aeruginosa (P. aeruginosa, KCTC 2513); experiment: Disc diffusion method, clear zone, P. aeruginosa; conditions: KCTC2513, Control Group Antibiotic: tetracycline (50 μg/mL), read-out: Clear Zone (ø, mm) P. aeruginosa
Experimental: as §1

[4] = system: Staphylococcus aureus (S. aureus, KCTC 1916); experiment: Disc diffusion method, clear zone, S. aureus
Experimental: as §1

[5] = system: Escherichia coli (E. coli, KCTC 2571); experiment: Disc diffusion method, clear zone, E. coli
Experimental: as §1

Row | Structure (SMILES) | zone of inhibition at 200 µg/mL [1] | Clear zone (ø, mm) C. albicans [2] | zone of inhibition at 50 µg/mL [3] | zone of inhibition at 50 µg/mL ([4]; KCTC1916, Control Group Antibiotic: tetracycline (50 μg/mL), read-out: Clear Zone (ø, mm) S. aureus) | zone of inhibition at 100 µg/mL ([4]; KCTC1916, Table 19 Antibiotic: tetracycline (100 μg/mL), read-out: Clear zone (ø, mm) S. aureus) | Clear Zone (ø, mm) E. coli ([5]; Control Group Antibiotic: tetracycline (50 μg/mL)) | zone of inhibition at 50 µg/mL ([5]; Escherichia coli, KCTC2571, Control Group Antibiotic: tetracycline (50 μg/mL), read-out: Clear Zone (ø, mm) E. coli) | zone of inhibition at 100 µg/mL ([5]; Escherichia coli, KCTC2571, Table 19 Antibiotic: tetracycline (100 μg/mL), read-out: Clear zone (ø, mm) E. coli)
1 | CC(=O)N1CCN(c2ccc(OCC3COC(Cn4ccnc4)(c4ccc(Cl)cc4Cl)O3)cc2)CC1 (centres unmarked) [ketoconazole] | 13.2 mm | no antibacterial activity |  |  |  |  |  | 
2 | CN(C)[C@@H]1C(O)=C(C(N)=O)C(=O)[C@@]2(O)C(O)=C3C(=O)c4c(O)cccc4[C@@](C)(O)[C@H]3C[C@@H]12 [tetracycline] |  |  | 9 mm | 22.8 mm | 18.2 mm | 19.6 mm and 18.2 mm and 18.5 mm and 20.7 mm and 15.7 mm and 17.8 mm and 14.2 mm | 25.6 mm | 14.2 mm
